Experimental data: US6132697A, “Radiopharmaceutical compositions capable of localizing at sites of thrombus” (G. D. Searle & Co., priority 1997, dated 2000)

Tests used:
GPIIb/IIIa receptors = biological target: T1, GPIIb/IIIa receptors (Homo sapiens, UniProt P05106+P08514); assay: ADP induced platelet aggregation inhibition assay in platelet rich plasma; assay type: cell-based; conditions: read-out: IC50 (half-maximal inhibition of platelet aggregation)
T1 construct: endogenous in cells; host or cells: platelets in platelet rich plasma from healthy volunteer donors
Protocol: This Example describes Platelet Aggregation Inhibition Assays of the compound of Example 2 to illustrate that the compound binds to GPIIb/IIIa receptors when radiolabelled.
Healthy aspirin free donors were randomly selected from a pool of volunteers. The harvesting of platelet rich plasma and subsequent ADP induced platelet aggregation assays were performed as described in Zucker, M. B. "Platelet Aggregation Measured by the Photometric Method", Methods in Enzymology 169 (1989):117-133. Standard venipuncture techniques using butterfly allowed the withdrawal of 45 mL of whole blood into a 60 mL syringe containing 5 mL 3.8% trisodium citrate. Following thorough mixing in the syringe, the anti-coagulated whole blood was transferred to a 50 mL conical polyethylene tube. The blood was centrifuged at room temperature for 12 minutes at 200xg to sediment non-platelet cells. Platelet poor plasma was obtained from a second centrifugation of the remaining blood at 2000xg for 15 minutes. Platelet counts are typically 300,000 to 500,000 per microliter. […] Aggregation was recorded for 3 minutes in a Payton dual channel aggregometer (Payton Scientific, Buffalo, N.Y.). […] The compounds were tested in duplicate and half-maximal inhibition (IC50) was calculated graphically from the dose response curve. […]

[1] = Biodistribution in rat model (radioactivity in organs, excretion); assay type: in vivo, Sprague-Dawley rats
Protocol: This study was designed to evaluate the biodistribution pattern of the compound of Example 2 to determine the clearance profile from blood, route of excretion and in vivo stability of the complex by HPLC analysis of urine samples, in a rat model.
The compound of Example 2 was injected ([…], 1.5-3.5 mCi/mL) into Sprague-Dawley rats. Groups of three animals were sacrificed at the time points indicated below to determine the amount of radioactivity remained in the organs. Results: (to be filled)
The compound of Example 7 was injected ([…], 1.5-3.5 mCi/mL) into Sprague-Dawley rats. Groups of three animals were sacrificed at the time points indicated below to determine the amount of radioactivity (%ID/g) remaining in the organs.
The compound of Example 12 was injected into Sprague-Dawley rats according to the procedure outlined in Example 5. The amount of radioactivity present in the major excretionary organs at different time points (1, 4 and 24 hours) are given below.
The compound of Example 19 was injected into Sprageue-Dawley rats according to the procedure outlined earlier. The amount of radioactivity present in the major excretionary organs at different time points (1, 4 and 24 hours) are given below.
The compound of Example 26 was injected ([…], 1.5-3.5 mCi/mL) into Sprague-Dawley rats. Groups of three animals were sacrificed at the time points indicated below to determine the amount of radioactivity remaining in the organs.

[2] = tested on: pulmonary emboli (PE) and/or deep vein thrombus (DVT); assay: Canine model for pulmonary embolism / deep vein thrombus (embolization coils); assay type: in vivo, dog; conditions: sacrifice at 3 hours
Protocol: These studies are designed to serve as a preliminary screen of various radiolabeled pharmaceuticals for the purpose of imaging pulmonary emboli (PE) and/or deep vein thrombus (DVT).
Procedure: The dog is first anesthetized with an intravenous injection of sodium pentobarbital (30 mg/kg). An IV catheter is placed into the jugular vein and advanced to the pulmonary artery. Visualization of the catheter placement is facilitated using fluoroscopy. Embolization coils of various sizes (3-8 mm) are next released via the catheter using the appropriate guide wire, and localization of the coils is followed by fluoroscopy. After a satisfactory number of coils (3-5) have been placed and visualized, the catheter is removed and the vein ligated. The formation of a deep vein thrombus (DVT) in the saphenous vein is facilitated by the placement of a 16 gauge needle into the vein followed by the passage of a 5 mm embolization coil through the needle directly into the vein.
IV injection (cephalic vein) of the radiolabeled test article occurs approximately 30-45 minutes post placement of the embolization coils. Approximate activity injected is 2.5-3.5mCi. Beginning at 30 minutes post injection and continuing for several hours at 30 minute intervals, the animal is scintigraphed in both the lateral and supine positions.
At the conclusion of the imaging portion of the study (3 hours) the animal is sacrificed, and selected tissues removed for scintillation counting. The coils are located, removed and quantitated for uptake of the radiotracer. From these values is determined the target:non-target ratios and blood clearance of the test article.
The compound of claim 19 was administered to a canine according to the general protocol described in Example 16.

T1 sequence (P08514 32-887 limits assumed): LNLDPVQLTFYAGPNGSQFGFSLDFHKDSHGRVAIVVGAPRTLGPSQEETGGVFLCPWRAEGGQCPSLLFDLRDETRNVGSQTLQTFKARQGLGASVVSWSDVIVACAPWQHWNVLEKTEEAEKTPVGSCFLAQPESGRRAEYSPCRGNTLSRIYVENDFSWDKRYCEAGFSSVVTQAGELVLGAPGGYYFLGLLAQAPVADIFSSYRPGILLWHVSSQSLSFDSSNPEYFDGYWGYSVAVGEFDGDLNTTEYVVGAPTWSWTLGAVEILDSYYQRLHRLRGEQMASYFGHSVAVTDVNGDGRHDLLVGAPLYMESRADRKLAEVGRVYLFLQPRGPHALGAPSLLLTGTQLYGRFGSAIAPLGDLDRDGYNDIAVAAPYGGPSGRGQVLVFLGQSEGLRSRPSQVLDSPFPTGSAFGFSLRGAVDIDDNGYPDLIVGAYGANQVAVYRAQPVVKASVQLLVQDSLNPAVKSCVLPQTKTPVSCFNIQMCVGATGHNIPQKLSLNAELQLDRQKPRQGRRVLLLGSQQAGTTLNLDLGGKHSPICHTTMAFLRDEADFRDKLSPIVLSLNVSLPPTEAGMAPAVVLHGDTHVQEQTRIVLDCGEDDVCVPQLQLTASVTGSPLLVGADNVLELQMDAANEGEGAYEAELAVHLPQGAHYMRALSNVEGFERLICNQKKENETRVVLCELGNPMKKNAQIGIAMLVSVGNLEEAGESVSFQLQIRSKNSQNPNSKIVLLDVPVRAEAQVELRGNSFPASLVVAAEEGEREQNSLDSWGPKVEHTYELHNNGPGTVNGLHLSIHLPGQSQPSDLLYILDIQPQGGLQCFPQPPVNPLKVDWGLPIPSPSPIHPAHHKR
T1 sequence (P08514 891-1039 partner limits assumed): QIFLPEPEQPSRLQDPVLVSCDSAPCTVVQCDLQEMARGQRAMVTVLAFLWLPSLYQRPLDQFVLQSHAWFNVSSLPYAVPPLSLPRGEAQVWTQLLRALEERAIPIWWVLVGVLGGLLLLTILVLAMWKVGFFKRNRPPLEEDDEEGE
T1 sequence (P05106 27-788): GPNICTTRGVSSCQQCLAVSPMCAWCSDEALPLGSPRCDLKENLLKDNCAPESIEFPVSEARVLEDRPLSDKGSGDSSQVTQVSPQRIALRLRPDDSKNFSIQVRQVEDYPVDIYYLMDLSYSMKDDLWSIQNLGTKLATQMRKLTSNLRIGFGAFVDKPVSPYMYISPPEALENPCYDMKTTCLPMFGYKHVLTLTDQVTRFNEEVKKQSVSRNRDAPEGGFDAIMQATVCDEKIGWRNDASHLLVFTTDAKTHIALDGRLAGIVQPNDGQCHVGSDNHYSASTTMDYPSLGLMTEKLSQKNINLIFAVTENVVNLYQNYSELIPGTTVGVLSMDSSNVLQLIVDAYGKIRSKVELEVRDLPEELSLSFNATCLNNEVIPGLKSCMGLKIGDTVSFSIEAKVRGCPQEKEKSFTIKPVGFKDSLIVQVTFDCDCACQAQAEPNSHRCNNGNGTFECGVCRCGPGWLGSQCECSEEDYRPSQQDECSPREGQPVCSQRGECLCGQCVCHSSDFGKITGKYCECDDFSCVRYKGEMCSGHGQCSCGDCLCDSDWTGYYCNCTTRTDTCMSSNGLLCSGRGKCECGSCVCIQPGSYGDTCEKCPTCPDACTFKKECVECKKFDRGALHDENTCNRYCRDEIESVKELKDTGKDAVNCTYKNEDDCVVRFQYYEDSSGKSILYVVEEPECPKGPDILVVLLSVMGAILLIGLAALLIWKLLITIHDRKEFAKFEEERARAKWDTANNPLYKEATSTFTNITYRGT

Row | IC50 (GPIIb/IIIa receptors) | radioactivity in organ: Blood ([1]; 1 hour) | radioactivity in organ: Kidney ([1]; 1 hour) | radioactivity in organ: Liver ([1]; 1 hour) | radioactivity in organ: Sml. Int & Contents ([1]; 1 hour) | radioactivity in organ: Blood ([1]; 4 hours) | radioactivity in organ: Kidney ([1]; 4 hours) | radioactivity in organ: Liver ([1]; 4 hours) | radioactivity in organ: Sml. Int & Contents ([1]; 4 hours) | radioactivity in organ: Blood ([1]; 24 hours) | radioactivity in organ: Kidney ([1]; 24 hours) | radioactivity in organ: Liver ([1]; 24 hours) | radioactivity in organ: Sml. Int & Contents ([1]; 24 hours) | % ID excreted in the feces at 24 hr. [1] | % ID excreted in the urine at 24 hr. [1] | Compound | also measured
1 | 0.49 µM |  |  |  |  |  |  |  |  |  |  |  |  |  |  | CN(C)CCNC(=O)C(CCC(=O)O)NC(=O)C(CCCCNC(=O)CCNC(=O)C(CC(=O)O)NC(=O)CCC(=O)Nc1ccc(C(=N)N)cc1)NC(=O)CSC1CCCCO1 [Example 18, ABAS-L-Asp-β-Ala-ε-L-Lys(α-S-THP-mercaptoacetyl)-Glu-dme] | 
2 |  | 0.067 % ID/g | 0.628 % ID/g | 0.043 % ID/g | 0.206 % ID/g | 0.011 % ID/g | 0.536 % ID/g | 0.015 % ID/g | 0.031 % ID/g | 0.007 % ID/g | 0.227 % ID/g | 0.014 % ID/g | 0.009 % ID/g | 16.277 % ID | 54.708 % ID | CN(C)CC[N]1C(=O)C(CCC(=O)O)[N]2C(=O)C(CCCC(=O)NCCCCC(NC(=O)C(CC(=O)O)NC(=O)CCC(=O)Nc3ccc(C(=N)N)cc3)C(=O)O)[N]3C(=O)C[S][99Tc-]132=[O] (centres unmarked) [Example 26] | 
3 |  | 0.067 % ID/g | 0.864 % ID/g | 0.158 % ID/g | 0.645 % ID/g | 0.011 % ID/g | 0.520 % ID/g | 0.024 % ID/g | 0.015 % ID/g | 0.004 % ID/g | 0.241 % ID/g | 0.009 % ID/g | 0.002 % ID/g | 32.758 % ID | 41.217 % ID | CN(C)CC[N]1C(=O)C(CCC(=O)O)[N]2C(=O)C(CCCCNC(=O)CCNC(=O)C(CC(=O)O)NC(=O)CCC(=O)Nc3ccc(C(=N)N)cc3)[N]3C(=O)C[S][99Tc-]132=[O] (centres unmarked) [Example 19] | % ID/g ([2]; Blood): 0.0018 % ID/g; % ID/g ([2]; Clot 1 (DVT)): 0.0828 % ID/g; Clot/blood ([2]; Clot 1 (DVT)): 43; % ID/g ([2]; Clot 2 (PE)): 0.0114 % ID/g; Clot/blood ([2]; Clot 2 (PE)): 6; % ID/g ([2]; Clot 3 (PE)): 0.125 % ID/g; Clot/blood ([2]; Clot 3 (PE)): 65; % ID/g ([2]; Clot 4 (PE)): 0.142 % ID/g; Clot/blood ([2]; Clot 4 (PE)): 74; % ID/g ([2]; Clot 5 (PE)): 0.1232 % ID/g; Clot/blood ([2]; Clot 5 (PE)): 64
4 | 0.29 µM |  |  |  |  |  |  |  |  |  |  |  |  |  |  | CN(C)CC[N]1C(=O)C(CCC(=O)O)[N]2C(=O)C(CCCC(=O)NCCCCC(NC(=O)C(CC(=O)O)NC(=O)CCC(=O)Nc3ccc(C(=N)N)cc3)C(=O)O)[N]3C(=O)C[S][TcH]132=[O] (centres unmarked) [Example 26] | 
